The source of these data is publication PMC11617668, “Developing Allosteric Inhibitors of SARS‐CoV‐2 RNA‐Dependent RNA Polymerase” (Chemmedchem, 2024).

Data set [1] in a line: Solubility in water (stated in words). Format: physicochemical.
A short description of data set [2]: in vitro. The conditions noted are these: human.
Procedure: (§1) Briefly, two‐fold fold serial dilutions of compounds were added in triplicate in a 384‐well plate with 15,000 Calu‐3 cells in DMEM medium with 2 % FBS, 100 U of penicillin/ml and 100 μg of streptomycin/ml (all Merck). After 1 h incubation SARS‐CoV‐2 was added at multiplicity of infection 0.01. Following three days incubation at 37 °C in 5 % CO2 the cell viability was determined by addition of XTT solution (Sigma‐Aldrich) for 4 h and the absorbance was measured using EnVision plate reader (Perkin Elmer). Drug concentrations required to reduce viral cytopathic effect by 50 % (EC50) were calculated using nonlinear regression from plots of percentage cell viability versus log10 drug concentration using GraphPad Prism v.9.0.0 (GraphPad Software). Cytotoxicity was evaluated by incubating the same two‐fold serial dilutions of each compound with Calu‐3 cells as above but without virus. Following three days of incubation at 37 °C in 5 % CO2, the cell viability was determined by the addition of XTT solution as above. The compound concentrations resulting in a 50 % reduction of absorbance (CC50) were calculated from plots of the percentage of absorbance versus log10 drug concentration as above.
For data set [3], the system named is SARS‐CoV‐2. The conditions noted are these: Severe acute respiratory syndrome coronavirus 2, Calu-3, 72 h.
Procedure: as §1
Data set [4] addresses SARS‐CoV‐2 RdRp complex (nsp12, nsp7, nsp8) (Severe acute respiratory syndrome coronavirus 2, UniProt P0DTD1). The data set is described as follows: Fluorescence-based RdRp polymerase assay (SYBR Green I RNA extension). Format: biochemical.
Data set [5] is described as follows: Kinetic solubility test in enzymatic assay medium. Format: physicochemical. The conditions noted are these: aqueous HEPES buffer with 5 % DMSO, pH 8, aqueous with cosolvent or surfactant or cyclodextrin, kinetic from dmso stock. As to the method:
Kinetic solubility tests were performed in the medium used for the enzymatic assay–aqueous solution of HEPES buffer with 5 % DMSO. […] This poor aqueous solubility represents a big hurdle in the development of potential antivirals and the improvement of solubility will be considered in further structural optimization efforts of this class of compounds.

Data set [6] relates to SARS‐CoV‐2. The conditions noted are these: cited from earlier work.
Data set [7] has as its system COVID‐19. The conditions noted are these: cited from earlier work.
The nature of data set [8]: Cytotoxicity in Calu-3 cells without virus (XTT). The conditions noted are these: human, CC50, Calu‐3 cells, no virus, three days. On the technique in general: Tetrazolium dyes change colour on reduction, which living cells bring about.
Procedure: as §1
For data set [9], the system named is Calu‐3 cells. The data set is described as follows: Cytotoxicity in Calu-3 cells without virus (XTT). The conditions noted are these: Calu‐3 cells, no virus, three days.
Procedure: as §1
The mark [10] stands for this setting: 50 min, read-out: residual activity (RA) of the SARS‐CoV‐2 RdRp complex.
The mark [11] stands for this setting: read-out: residual activity (RA) of SARS‐CoV‐2 RdRp.

In brackets after ≈: the same amount, converted by molar mass. Like-named read-outs stand apart in the source and are kept apart here. Bounds are passed on as bounds.

One may read the EC50 as the midpoint of the concentration-response curve. Low readings indicate greater potency, high ones weaker potency. Consider `CC(C)OC(=O)c1cc(NC(=O)Nc2cccc([N+](=O)[O-])c2)cc(C(=O)OC(C)C)c1` [Compound 1], for which the solubility in water entry in [1] is “poorly soluble in water”. In data set [2], this compound came in with a CC50 at 3 days of 23 µM. In data set [3], this compound gave a concentration giving a half-maximal response (EC50) above 23 µM. The remaining activity at 10 µM in data set [4] (setting [10]) came out at 57%.

In data set [2], `COC(=O)c1cc(NC(=O)Nc2cccc(C(F)(F)F)c2)cc(C(=O)OC)c1` [Compound 9, Dimethyl 5‐(3‐(3‐Trifluoromethylphenyl)ureido)isophthalate] had a CC50 at 3 days of 10.6 µM. Further, in data set [3], the EC50 was above 10 µM. The remaining activity at 10 µM in [4] (setting [10]) came out at 70%.

Compound `COC(=O)c1cc(NC(=O)Nc2cc(C(F)(F)F)cc(C(F)(F)F)c2)cc(C(=O)OC)c1` [Compound 11, Dimethyl 5‐(3‐(3,5‐Bis(trifluoromethyl)phenyl)ureido)isophthalate] gave a CC50 at 3 days in data set [2] of 5.1 µM. In data set [3], this compound registered an EC50 above 5 µM. The remaining activity at 10 µM in data set [4] (setting [10]) came out at 65%.

For `O=C(Nc1cccc([N+](=O)[O-])c1)Nc1cc(C(F)(F)F)cc(C(F)(F)F)c1` [Compound 19, 1‐(3,5‐Bis(trifluoromethyl)phenyl)‐3‐(3‐Nitrophenyl)urea], the CC50 at 3 days in data set [2] is 3.4 µM. The compound also showed an EC50 in data set [3] above 3 µM. For the same compound, in data set [4] (setting [10]), the remaining activity at 10 µM turned out to be 62%.

For orientation: kinetic solubility means the concentration staying in solution when a stock, usually in DMSO, is diluted into the medium. The compound `O=C(Nc1cc(Cl)cc(Cl)c1)Nc1cccc(C(F)(F)F)c1` [Compound 47, 1‐(3,5‐Dichlorophenyl)‐3‐(3‐(Trifluoromethyl)phenyl)urea] registered a CC50 at 3 days in data set [2] of 0.49 µM. Further, the solubility (kinetic) in [5] was below 2 µM. Further, in data set [3], the EC50 is above 0.49 µM. For the same compound, in [4] (setting [10]), the remaining activity at 10 µM came to 45%.

Take `FC(F)(F)c1ccc2nc(-c3nc4cc(Cl)c(Cl)cc4[nH]3)[nH]c2c1` [Compound 55, 5,6‐Dichloro‐6′‐(Trifluoromethyl)‐1 H ,1′H‐2,2′‐Bibenzo[d]imidazole]: in data set [2], the CC50 at 3 days was 2.1 µM. This compound showed a kinetic solubility in data set [5] of 2.9 ± 0.6 µM (≈ 1.08 µg/mL). The compound further gave an EC50 in data set [3] above 2.1 µM. Also, the remaining activity at 10 µM in [4] (setting [10]) worked out at 42%.

`FC(F)(F)c1cccc(Nc2nc3cc(Cl)c(Cl)cc3[nH]2)c1` [Compound 56, 5,6‐Dichloro‐N‐(3‐(Trifluoromethyl)phenyl)‐1H‐Benzo[d]imidazol‐2‐Amine] showed a CC50 at 3 days in [2] of 43 µM. This compound showed a solubility (kinetic) in data set [5] of 7 ± 0.1 µM (≈ 2.42 µg/mL). For the same compound, in data set [3], the concentration giving a half-maximal response (EC50) is above 43 µM. In data set [4] (setting [10]), the remaining activity at 10 µM stood at 60%.

Turning to `O=C(Nc1cccc(C(F)(F)F)c1)Nc1nc2cc(Cl)c(Cl)cc2[nH]1` [Compound 59, 1‐(5,6‐Dichloro‐1H‐Benzo[d]imidazol‐2‐yl)‐3‐(3‐(Trifluoromethyl)phenyl)urea], in [2], the CC50 at 3 days worked out at 23 µM. The solubility (kinetic) in data set [5] came out at 2.53 ± 0.03 µM (≈ 0.985 µg/mL). The same compound yielded an EC50 in data set [3] of around 10 µM. In data set [4] (setting [10]), the remaining activity at 10 µM is 50%.

In turn, `O=C(Nc1cc(Cl)cc(Cl)c1)Nc1nc2ccc(C(F)(F)F)cc2[nH]1` [Compound 60, 1‐(3,5‐Dichlorophenyl)‐3‐(6‐(Trifluoromethyl)‐1H‐Benzo[d]imidazol‐2‐yl)urea] had a CC50 at 3 days in data set [2] of 0.65 µM. This compound also registered a solubility (kinetic) in [5] below 2.1 µM. In addition, the concentration giving a half-maximal response (EC50) in data set [3] was above 0.65 µM. Moreover, the remaining activity at 10 µM in [4] (setting [10]) was found to be 28%.

Turning to `O=C(Nc1ccccc1)Nc1ccc(-c2ccc(C(=O)[C@@H]3CCC[C@H]3C(=O)O)cc2)cc1` [Compound A922500, A922500, reference compound], in [4] (setting [10]), the remaining activity at 10 µM worked out at 100%. In addition, the “activity in cell assays against the virus” value (from here on “activity in cell assays”) in [6] is reported as “active”.

With `O=C(Nc1cc(C(F)(F)F)cc(C(F)(F)F)c1)Nc1ccc(Br)cc1-c1nnn[nH]1` [Endovion, endovion, reference compound], the solubility in water entry in [1] is on record as “poorly soluble in water”. In addition, the CC50 at 3 days in data set [2] was above 64 µM. This compound also showed a concentration giving a half-maximal response (EC50) in data set [3] above 64 µM. Besides, the remaining activity at 10 µM in [4] (setting [10]) was 40%. For the same compound, the “activity in cell assays” value in [6] is recorded as “active”.

Consider `CC(C)C(=O)OC[C@H]1O[C@@H](n2ccc(NO)nc2=O)[C@H](O)[C@@H]1O` [Molnupiravir, molnupiravir], for which the “post‐hospitalization mortality rate” value in data set [7] (30‐day‐long study, patients with moderate COVID‐19, placebo 9.7 %) was 6.8%.

In turn, `CCC(CC)COC(=O)[C@H](C)N[P@](=O)(OC[C@H]1O[C@@](C#N)(c2ccc3c(N)ncnn23)[C@H](O)[C@@H]1O)Oc1ccccc1` [Remdesivir, remdesivir, reference compound] returned an EC50 in data set [3] of 0.11 µM. The CC50 at 3 days in data set [8] is above 3.2 µM. The compound also gave a CC50 in data set [9] above 5 µM. Also, the “mortality among hospitalized adults” value in data set [7] (Adaptive COVID Treatment Trial (ACTT), placebo 15.2 %) was 11.4%. Moreover, in data set [7] (Hubei (China) study), the “improvement compared with placebo” value was “no statistically significant improvement”. In data set [4] (setting [11]), the remaining activity at 10 µM was determined as 62%, the remaining activity at 50 µM was determined as 40% and the remaining activity at 100 µM is 25%.

In the case of `NC(=O)c1nc(F)c[nH]c1=O` [favipiravir], in data set [7] (open‐label randomized trial in China, COVID‐19 patients), the clinical recovery rate result is on record as “did not significantly improve”.

As for `COc1cc(NC(=O)Nc2cccc(CNC(=O)O[C@H]3CCOC3)c2)ccc1-c1cnco1` [merimepodib, reference compound], the remaining activity at 10 µM in data set [4] (setting [10]) came to 100%. In [6] (in combination with remdesivir), the viral replication result is “completely suppress viral replication”.

With `CNC(=O)c1cc(Oc2ccc(NC(=O)Nc3ccc(Cl)c(C(F)(F)F)c3)c(F)c2)ccn1` [regorafenib, reference compound], the remaining activity at 10 µM in data set [4] (setting [10]) came to 76%. Also, the “activity in cell assays” value in [6] is on record as “active”.

`CNC(=O)c1cc(Oc2ccc(NC(=O)Nc3ccc(Cl)c(C(F)(F)F)c3)cc2)ccn1` [sorafenib]: in [6], the cell infection result is “strongly inhibited cell infection”.
